{"source": "patent US5681836A", "about": "“Methanesulfonate salts of antipsychotic benzofuran derivatives” (Merck, Sharp & Dohme, Ltd., priority 1995, dated 1997)", "biological_target": "T1, human dopamine D4 receptor subtype (Homo sapiens, UniProt P21917)", "T1 sequence (P21917 1-419)": "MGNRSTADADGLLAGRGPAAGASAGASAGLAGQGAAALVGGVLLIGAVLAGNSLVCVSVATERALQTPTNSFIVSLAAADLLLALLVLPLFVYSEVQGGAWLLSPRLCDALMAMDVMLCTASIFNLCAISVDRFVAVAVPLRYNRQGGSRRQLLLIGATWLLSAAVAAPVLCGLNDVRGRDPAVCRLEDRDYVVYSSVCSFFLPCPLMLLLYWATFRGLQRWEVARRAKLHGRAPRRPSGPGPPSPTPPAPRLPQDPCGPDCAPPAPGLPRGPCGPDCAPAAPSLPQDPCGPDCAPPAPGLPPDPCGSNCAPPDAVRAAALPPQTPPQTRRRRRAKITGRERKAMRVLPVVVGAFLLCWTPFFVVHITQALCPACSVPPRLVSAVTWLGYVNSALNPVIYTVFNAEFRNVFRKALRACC", "assay": "[3H]-Spiperone binding (displacement) studies, human dopamine D4 receptor subtype expressed in clonal cell lines", "conditions": "0.2 nM [3H]-spiperone for displacement; 60 min, room temperature (22° C.), pH 7.4; membranes of clonal cell lines; read-out: Ki value for displacement of [3H]-spiperone from the human dopamine D4 receptor subtype", "protocol": "Moreover, these salts display a selective affinity for the D4 subtype relative to the D2 subtype.\nClonal cell lines expressing the human dopamine D4 receptor subtype were harvested in PBS and then lysed in 10 mM Tris-HCl pH 7.4 buffer containing 5 mM MgSO4 for 20 min on ice. Membranes were centrifuged at 50,000 g for 15 min at 4° C. and the resulting pellets resuspended in assay buffer (50 mM Tris-HCl pH 7.4 containing 5 mM EDTA, 1.5 mM CaCl2, 5 mM MgCl2, 5 mM KCl, 120 mM NaCl, and 0.1% ascorbic acid) at 20 mg/ml wet weight. Incubations were carried out for 60 min at room temperature (22° C.) in the presence of 0.05-2 nM [^3 H]-spiperone or 0.2 nM for displacement studies and were initiated by addition of 20-100 μg protein in a final assay volume of 0.5 ml. The incubation was terminated by rapid filtration over GF/B filters presoaked in 0.3% PEI and washed with 10 ml ice-cold 50 mM Tris-HCl, pH 7.4. Specific binding was determined by 10 μM apomorphine and radioactivity determined by counting in a LKB beta counter. Binding parameters were determined by non-linear least squares regression analysis, from which the inhibition constant Ki could be calculated for each test compound.", "note": "Structures can show the parent of a compound that is named as a salt.", "data": [{"smiles": "C1=C(/C=C/c2ccccc2)CCN(Cc2coc3ccccc23)C1", "note": "[Example 1, (E)-3-[4-(2-Phenylethenyl)-1,2,3,6-tetrahydropyridin-1-yl]methylbenzo[b]furan methanesulfonate salt]", "values": [{"measurement": "Ki", "result": "< 1.5", "unit": "µM"}]}]}
